Measurements: patent US20130090317A1 (priority 2011, published 2013)
Like-named read-outs stand apart in the source and are kept apart here.

Tests used:
[1] = system: severe TBI patients; settings: six months; cited from earlier work
[2] = system: rats that have suffered a concussion (mTBI); test: Morris Water Maze latency to platform in mTBI (concussion) model; assay type: in vivo, rat; settings: versus vehicle-injured rats (FIG. 8)
[3] = system: rats suffering from TBI; settings: moderate to severe TBI, 16 mg/kg, 72 hours post-injury, p<0.05 (FIG. 1); cited from earlier work
[4] = system: moderate to severe TBI patients; settings: cited from earlier work
[5] = system: glutathione reductase; settings: 72 hours post-injury, p<0.01 (FIG. 2); cited from earlier work
[6] = target: T1, classical progesterone receptor (PR) (Homo sapiens, UniProt P06401); settings: cited from earlier work
T1 sequence (P06401 1-933): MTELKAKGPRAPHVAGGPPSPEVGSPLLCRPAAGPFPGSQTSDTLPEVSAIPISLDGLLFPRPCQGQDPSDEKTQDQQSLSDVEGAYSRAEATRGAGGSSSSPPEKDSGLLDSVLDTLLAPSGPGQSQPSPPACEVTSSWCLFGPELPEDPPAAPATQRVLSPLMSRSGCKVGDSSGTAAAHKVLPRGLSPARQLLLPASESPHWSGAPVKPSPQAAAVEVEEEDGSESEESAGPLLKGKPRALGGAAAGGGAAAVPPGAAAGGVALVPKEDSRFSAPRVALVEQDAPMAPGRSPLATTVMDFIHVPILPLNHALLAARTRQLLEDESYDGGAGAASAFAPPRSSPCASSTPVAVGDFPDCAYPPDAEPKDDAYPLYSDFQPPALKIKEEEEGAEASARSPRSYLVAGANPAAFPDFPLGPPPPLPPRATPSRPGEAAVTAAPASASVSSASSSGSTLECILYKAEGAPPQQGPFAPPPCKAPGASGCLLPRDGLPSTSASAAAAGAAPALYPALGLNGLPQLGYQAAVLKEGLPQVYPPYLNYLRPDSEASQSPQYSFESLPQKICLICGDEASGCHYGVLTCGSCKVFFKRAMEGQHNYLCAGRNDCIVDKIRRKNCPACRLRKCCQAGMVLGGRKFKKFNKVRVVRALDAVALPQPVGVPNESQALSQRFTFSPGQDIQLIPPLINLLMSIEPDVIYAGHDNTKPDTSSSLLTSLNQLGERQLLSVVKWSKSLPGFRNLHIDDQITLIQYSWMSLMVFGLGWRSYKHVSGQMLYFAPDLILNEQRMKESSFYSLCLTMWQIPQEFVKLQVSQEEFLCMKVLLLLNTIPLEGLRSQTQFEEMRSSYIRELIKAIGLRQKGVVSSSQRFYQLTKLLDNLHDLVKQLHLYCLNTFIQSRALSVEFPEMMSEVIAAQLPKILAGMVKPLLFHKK

Row | Compound | neurological outcomes long-term [1] | latency to platform, Morris Water Maze ([2]; Prog administered post-acutely (15 minutes post)) | latency to platform, Morris Water Maze ([2]; Prog administered prophylactically (15 minutes prior)) | brain water content (measure of edema) [3] | 30 days post-injury outcomes (Glasgow Outcome Scale-Extended, Disability Rating Scale) ([4]; moderate TBI patients) | 30 days post-injury outcomes (Glasgow Outcome Scale-Extended, Disability Rating Scale) ([4]; patients with severe brain injuries) | anti-oxidant activity of glutathione reductase [5] | activation of the classical progesterone receptor (PR) [6]
1 | CC(=O)[C@H]1CC[C@H]2[C@@H]3CCC4=CC(=O)CC[C@]4(C)[C@H]3CC[C@]12C [Prog, progesterone] | better neurological outcomes long-term | decreases latency to platform | decreases latency to platform | normalizes brain water content | better outcomes | little measurable difference |  | 
2 | CC(=O)[C@H]1CC[C@H]2[C@@H]3CC[C@H]4C[C@H](O)CC[C@]4(C)[C@H]3CC[C@]12C [ALLO, allopregnanolone] |  |  |  | normalizes brain water content |  |  |  | 
3 | CC(=O)[C@@H]1CC[C@@H]2[C@H]3CCC4=CC(=O)CC[C@@]4(C)[C@@H]3CC[C@]21C [ent-Prog, ent-progesterone] |  |  |  | normalizes brain water content |  |  | significantly increases the anti-oxidant activity of glutathione reductase compared to all other groups | does not activate the classical progesterone receptor (PR)
